Experimental data from PubChem BioAssay (NCI).
Several values for one entry are separate records, joined by “and”; a condition that tells them apart may be missing. Equal entries are not always repeated.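 Exposure lasted 48 hours, with cells grown in 96-well plates and compounds tested at five concentrations. Here, GI50 denotes the concentration required for 50% inhibition of growth. TGI marks complete inhibition of growth.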

Experiments:
Experiment in all cases: NCI-60 cell line screen, 48 h
[1] = tested on: CCRF-CEM leukemia
[2] = tested on: HCC-2998 colon
[3] = tested on: HCT-15 colon
[4] = tested on: K-562 leukemia
[5] = tested on: OVCAR-4 ovarian
[6] = tested on: OVCAR-5 ovarian
[7] = tested on: SK-MEL-28 melanoma
[8] = tested on: SW-620 colon
[9] = tested on: UO-31 renal
[10] = tested on: COLO 205 colon

Structure (SMILES)	TGI [1] [µM]	TGI [2] [µM]	TGI [3]	TGI [4] [µM]	TGI [5]	TGI [6]	TGI [7]	TGI [8]	TGI [9]	GI50 [10] [µM]	TGI [10] [µM]	GI50 [2] [µM]	GI50 [3]	GI50 [5] [µM]	GI50 [6] [µM]	GI50 [7]	GI50 [8] [µM]	GI50 [9]	GI50 [1] [µM]	GI50 [4] [µM]
N/N=C(\C(=O)Nc1ccc(Cl)cc1Cl)C(c1cnc2ccccc2n1)[N+](=O)[O-] (stereo unspecified)	> 100	> 100	> 100 µM	> 100	> 100 µM	> 100 µM	> 100 µM	> 100 µM	> 100 µM											
CN(C)c1ccc(N=C2C=CC(=[N+](C)C)C=C2)cc1		65.8	> 100 µM		21.8 µM	76.6 µM	> 100 µM	26.2 µM	47.6 µM	4.2	16.2	9.03	23.5 µM	7.52	20.4	14.2 µM	6.6	11.3 µM		
Clc1cccc(Cl)c1C1CSc2ccccc2N=C1c1ccccc1 (stereo unspecified)	34.8	15.5	3.98 µM		16 µM	13.2 µM	17.3 µM	5.64 µM	4.57 µM	12.3	33.5	4.74	1.66 µM	3.11	3.88	4.82 µM	2.34	1.42 µM	3.44	
CC1C[C@H](C)CC(C(O)CC2CC(=O)N(Cc3ccccc3)C(=O)C2)C1O (stereo partly specified)	> 100	> 100		> 100	> 100 µM	> 100 µM	> 100 µM	> 100 µM	> 100 µM		> 100									
CC(/C(=N\Nc1ccccc1)c1ccc(O)cc1)C1C(=O)Oc2ccccc21 (stereo unspecified)	> 100	> 100	> 100 µM	> 100	> 100 µM			> 100 µM	> 100 µM		> 100									
CCCCCCCCN(CCCCCCCC)CCCCCCNc1cc(OC)cc2cccnc12	> 100	26.2	24 µM		19.7 µM	29.6 µM	27.1 µM	10.1 µM	24.4 µM			13.1	7.68 µM	5.62	15.3	13.6 µM	2.75	10.9 µM	11.4	
O=C(/C(=C\c1ccc([N+](=O)[O-])cc1)S(=O)Cc1ccc(F)cc1)c1ccc(F)cc1 (stereo unspecified)	6.75	3.22	4.43 µM		3.91 µM	3.67 µM	3.66 µM	3.13 µM	3.23 µM	1.91	3.63	1.69	1.64 µM	1.84	1.83	1.8 µM	1.58	1.52 µM	1.48	
Cc1ccc(S(=O)(=O)N2CCSCCN(S(=O)(=O)c3ccc(C)cc3)CCN(S(=O)(=O)c3ccc(C)cc3)CC2)cc1	> 100	> 100		> 100	> 100 µM	> 100 µM	> 100 µM	> 100 µM	> 100 µM		> 100									
CC1(C)CCC2=C(O1)c1ccccc1C(=O)C2=O	> 100	3.25	2.33 µM and 1.79 µM		2.53 µM and 5.78 µM	3.33 µM and 1.02 µM	3.39 µM and 1.44 µM	3.93 µM and 1.09 µM	2.89 µM and 2.23 µM		3.63	1.76	0.739 µM and 0.537 µM	1.27	1.81	1.88 µM and 0.406 µM	1.86	1.54 µM and 1.05 µM	3.3	
C/C(=C\CCc1ccoc1)CC/C=C(\C)CCCN1CCOCC1	11	23.8	11.8 µM		14.3 µM	21.3 µM	24 µM	14.6 µM	24.6 µM	3.15	12.4	10.9	2.98 µM	3.21	7.17	10.3 µM	3.43	10.3 µM	2.79	
COc1ccc2c(CN3CCC(C(=O)O)CC3)cc3cc4c(cc3c2c1)OCO4	6.5	11	16.7 µM	11.3	> 100 µM	6.87 µM	6.02 µM	39.4 µM		1.55	4.33	2.72	2.76 µM	4.15	2.55	2.28 µM	2.51		1	2.66
